# Laboratory results published in US5178789A, “Liquid detergent with stabilized enzyme” (Genencor International, Inc., priority 1991, dated 1993).
# Several values for one entry are separate records, joined by “and”; a condition that tells them apart may be missing. Identical values can stand only once.
# Tests used:
# Assay type in all cases: biochemical
# [1] = test system: subtilisin; test: Dilution assay: inhibition mixture diluted, final 1:1000, recovered subtilisin activity; settings: final dilution 1:1000, 0.1M Tris pH 8.6
# Protocol: The above inhibition assay is diluted 1:10 into the standard subtilisin assay buffer (0.1M Tris, pH 8.6 with 0.005% Tween). 10 μl of this diluted material is then added to a cuvette containing 10 μl of 100 mg/ml SAAPFpna and 980 μl subtilisin Assay Buffer. The rate of reaction is followed at 410 nm. The final dilution is 1:1000.
# [2] = test system: subtilisin; test: Inhibition assay: subtilisin incubated with inhibitor, rate of substrate hydrolysis monitored; settings: about 2 mg/ml TOM; summary of Tables I and II
# Protocol: The inhibitor solution is made up in a 20 mM Mops, pH 7 buffer and added to an eppendorf. 0.8 mM subtilisin is added and the mixture is allowed to incubate at room temperature for 15 minutes. After 15 minutes, 99 μl of the mixture is added to a cuvette containing 10 μl of 100 mg/ml SAAApna. The rate of hydrolysis is monitored at […]. A subtilisin control containing no inhibitor is carried out.
# [3] = test system: subtilisin; test: Inhibition of subtilisin by TOM in the presence of Tide Liquid, diluted 1/500; settings: for % Activity Recovered Upon Dilution / Subtilisin activity, Tide 2 mg/ml TOM: 2 mg/ml TOM in Tide Liquid, diluted 1/500
# Protocol: 2 mg/ml of TOM was added to Tide™ Liquid (commercially available from The Procter & Gamble Co). The solution was diluted 1/500 into the standard subtilisin 8.6 Tris buffer. 10 μl aliquots were taken at various times to monitor subtilisin activity. Similar dilutions and assay procedures were carried out with Tide™ Liquid. 100 mg/ml SAAPFpna substrate was used.
substance,measurement,setting,value
turkey ovomucoid [TOM],Dilution Assay % Recovered Activity,[1]; 0.4 mg/ml TOM,32%
same,Dilution Assay % Recovered Activity,[1]; 2 mg/ml TOM,45%
same,active enzyme bound by inhibitor,[2],at least 90%
same,enzyme activity recovered immediately upon appropriate dilution,"[3]; about 2 mg/ml TOM, summary of Tables I and II",> 25% and 46%
same,% Activity Recovered Upon Dilution,[3]; time 0 min,46%
same,"Subtilisin activity, Tide 2 mg/ml TOM",[3]; time 0 min,1.04
same,% Activity Recovered Upon Dilution,[3]; time 15 min,38%
same,"Subtilisin activity, Tide 2 mg/ml TOM",[3]; time 15 min,0.97
same,% Activity Recovered Upon Dilution,[3]; time 30 min,33%
same,"Subtilisin activity, Tide 2 mg/ml TOM",[3]; time 30 min,0.965
